Measured values: PMC8151276, “An Integrated Approach toward NanoBRET Tracers for Analysis of GPCR Ligand Engagement” (Molecules, 2021)

What was measured:
Type in all cases: binding
[1] = target: T1, CXCR3 (Homo sapiens, UniProt P49682); assay: NanoBRET screen HiBiT-CXCR3 in HEK293
T1 construct: purchased Promega (in-house HiBiT-GPCR construct library, NanoBRET)
T1 sequence (P49682 1-368): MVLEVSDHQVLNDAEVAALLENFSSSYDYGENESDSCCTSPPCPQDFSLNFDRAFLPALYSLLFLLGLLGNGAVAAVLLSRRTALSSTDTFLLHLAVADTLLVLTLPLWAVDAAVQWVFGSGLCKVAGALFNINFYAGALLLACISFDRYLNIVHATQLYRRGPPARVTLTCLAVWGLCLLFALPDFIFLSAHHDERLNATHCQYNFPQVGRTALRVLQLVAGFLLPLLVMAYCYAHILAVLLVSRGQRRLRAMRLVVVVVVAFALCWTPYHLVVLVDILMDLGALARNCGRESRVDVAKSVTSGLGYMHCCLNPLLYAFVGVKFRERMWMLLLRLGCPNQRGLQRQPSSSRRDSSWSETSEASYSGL
Method: (§1) Each tracer candidate was screened across the entire library of HiBiT-GPCR constructs using NanoBRET as the detection modality. As depicted in Figure 4A, the specificity of interactions was evaluated through decrease in BRET due to competitive displacement of a bound tracer by excess parental compound. Each tracer was analyzed for binding to each HiBiT-GPCR fusion in the absence and in the presence of competing parental compound. Briefly, HEK293 cells were transfected with HiBiT-GPCR constructs diluted into promoterless DNA to reduce expression and maximize translocation to the cell surface. Each tracer candidate was then screened at concentrations of 1 μM and 0.1 μM across cells expressing these fusions. Cells were treated for 1.5 h with tracer either alone or in the presence of 20 μM competing parental compound (i.e., control). BRET was measured upon addition of purified LgBiT and subsequent complementation with HiBiT genetically fused to a GPCR. The specificity of interactions was assessed through a decrease in BRET signal due to competitive displacement of the bound tracer. To further gauge the robustness of these interactions, the fold response over the control (i.e., BRETtracer/BRETcontrol) was calculated. We chose a 1.5-fold response, which translates to ≥7-fold signal over noise as the minimal threshold required to score an interaction as positive. […]. Below we highlight the screening results obtained for our exemplary fluorescent tracers based on Clozapine, Amitriptyline and AZD1283.
(§2) HiBiT-GPCR DNA constructs were diluted in 10 mM Tris pH 8 to a final concentration of 0.01 μg/μL, arrayed in 96-well plates and stored at −20 °C. For transfection, HEK293 cells were suspended in Opti-MEM (without phenol red) supplemented with 2% fetal bovine serum (Seradigm) and 100 units/mL penicillin–streptomycin (Gibco) at a final concentration of 220,000 cells/mL and dispensed into white 96-well plates at 90 μL/well. Subsequent transfections and screens were carried using an Agilent Bravo Automated Liquid Handling Platform. First, the 96-well HiBiT DNA arrays were diluted 25-fold in Opti-MEM (without serum or phenol red) to a final concentration of 0.0004 μg/μL and 20 μL of the diluted DNAs were transferred into new 96-well plates. Next, promoterless carrier DNA (1 μg/μL) was diluted 25-fold (0.04 μg/μL) and then dispensed into the diluted arrays at 20 μL/well. Following brief mixing, Viafect transfection reagent (Promega) diluted 16-fold into Opti-MEM was dispensed into the plates at 40 μL/well. After mixing by pipetting, plates were incubated for 10 min on the pipetting station deck. The DNA-transfection reagent complexes were then added to plates containing cells. To facilitate the screen, 10 μL of DNA-transfection reagent complexes were added in duplicates to the top 4 and bottom 4 rows, resulting in two identical 48-well arrays per plate. Plates with transfected cells were incubated for 18–20 h at 37 °C/5% CO2. A screen of each tracer across the entire library using two different concentrations requires duplicate plates of transfected cells. Depending on the number of tracers being screened, transfections can be scaled up using the same ratios. The next day, for each tracer, four 20× screening solutions in tracer dilution buffer (Promega) were prepared: two duplicates at final concentration of 20 μM and two duplicates at a final concentration of 2 μM. A competing unmodified compound was added to one of each duplicate at a final concentration of 400 μM. The four resulting solutions were diluted 4-fold in Opti-MEM without serum or phenol red to generate 5× solutions (5 µM and 0.5 µM tracer +/− 100 μM competing compound). To screen the library, a BioTek MultiFlo FX liquid dispenser was used to dispense 22.5 µL of tracer solution to the top 4 rows and 22.5 µL tracer + competing compound solution to the 4 bottom rows. Plates were briefly mixed on an orbital shaker and incubated for 1.5 h at room temperature. […]

[2] = target: T2, HTR1D (Homo sapiens, UniProt P28221); assay: NanoBRET screen HiBiT-HTR1D in HEK293
T2 construct: purchased Promega (in-house HiBiT-GPCR construct library, NanoBRET)
Method: as §1, §2

[3] = target: T3, OPRK1 (Homo sapiens, UniProt P41145); assay: NanoBRET screen HiBiT-OPRK1 in HEK293
T3 construct: purchased Promega (in-house HiBiT-GPCR construct library, NanoBRET)
Method: as §1, §2

[4] = target: T4, BDKRB2 (Homo sapiens, UniProt P30411); assay: NanoBRET screen HiBiT-BDKRB2 in HEK293
T4 construct: purchased Promega (in-house HiBiT-GPCR construct library, NanoBRET)
T4 sequence (P30411 1-391): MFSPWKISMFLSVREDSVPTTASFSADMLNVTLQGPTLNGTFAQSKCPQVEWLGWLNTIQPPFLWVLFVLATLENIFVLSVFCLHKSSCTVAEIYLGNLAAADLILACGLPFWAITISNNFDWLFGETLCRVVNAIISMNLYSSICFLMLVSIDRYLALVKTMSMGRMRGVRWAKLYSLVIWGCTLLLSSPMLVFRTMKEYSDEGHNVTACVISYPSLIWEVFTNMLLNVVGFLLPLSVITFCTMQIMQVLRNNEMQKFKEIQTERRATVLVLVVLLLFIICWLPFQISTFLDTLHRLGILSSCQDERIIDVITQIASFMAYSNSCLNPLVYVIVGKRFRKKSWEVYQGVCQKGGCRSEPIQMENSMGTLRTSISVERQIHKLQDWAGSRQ
Method: as §1, §2

[5] = target: T5, VIPR1 (Homo sapiens, UniProt P32241); assay: NanoBRET screen HiBiT-VIPR1 in HEK293
T5 construct: purchased Promega (in-house HiBiT-GPCR construct library, NanoBRET)
T5 sequence (P32241 31-457): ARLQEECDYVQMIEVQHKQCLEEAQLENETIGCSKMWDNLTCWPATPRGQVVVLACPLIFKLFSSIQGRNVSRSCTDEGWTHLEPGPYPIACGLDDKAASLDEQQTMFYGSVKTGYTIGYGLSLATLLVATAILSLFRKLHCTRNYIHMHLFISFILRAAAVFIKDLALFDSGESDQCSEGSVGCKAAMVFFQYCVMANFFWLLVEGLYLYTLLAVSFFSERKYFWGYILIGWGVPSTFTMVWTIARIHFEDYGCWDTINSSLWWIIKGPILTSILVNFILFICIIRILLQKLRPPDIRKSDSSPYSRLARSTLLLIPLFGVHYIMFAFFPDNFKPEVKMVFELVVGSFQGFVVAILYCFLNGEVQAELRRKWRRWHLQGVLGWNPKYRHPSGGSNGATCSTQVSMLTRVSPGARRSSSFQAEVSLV
Method: as §1, §2

T3 sequence (P41145 whole entry): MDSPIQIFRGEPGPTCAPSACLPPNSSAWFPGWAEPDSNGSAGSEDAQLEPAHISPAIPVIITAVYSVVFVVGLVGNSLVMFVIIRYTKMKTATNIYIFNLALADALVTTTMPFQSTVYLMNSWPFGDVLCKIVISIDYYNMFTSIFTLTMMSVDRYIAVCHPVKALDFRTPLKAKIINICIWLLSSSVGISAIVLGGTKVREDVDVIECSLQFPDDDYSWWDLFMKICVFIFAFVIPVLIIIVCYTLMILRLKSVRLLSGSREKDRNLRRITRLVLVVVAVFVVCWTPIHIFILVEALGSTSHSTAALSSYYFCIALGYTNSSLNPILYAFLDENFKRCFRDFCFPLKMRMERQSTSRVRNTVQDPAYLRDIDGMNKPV
T2 sequence (P28221 whole entry): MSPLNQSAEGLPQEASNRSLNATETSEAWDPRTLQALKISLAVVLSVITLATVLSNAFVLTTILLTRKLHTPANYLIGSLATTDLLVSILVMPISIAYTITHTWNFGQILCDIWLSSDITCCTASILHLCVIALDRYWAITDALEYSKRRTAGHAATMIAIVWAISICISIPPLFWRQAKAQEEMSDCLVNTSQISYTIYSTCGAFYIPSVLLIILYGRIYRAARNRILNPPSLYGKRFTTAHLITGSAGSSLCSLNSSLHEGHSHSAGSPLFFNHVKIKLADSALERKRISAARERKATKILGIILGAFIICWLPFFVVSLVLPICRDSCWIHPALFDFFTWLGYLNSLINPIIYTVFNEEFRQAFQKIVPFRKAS

Row | Structure (SMILES) | NanoBRET Fold Response ([1]; CXCR3, tracer 0.1μM) | NanoBRET Fold Response ([1]; CXCR3, tracer 1μM) | NanoBRET Fold Response ([2]; HTR1D, tracer 0.1μM) | NanoBRET Fold Response ([2]; HTR1D, tracer 1μM) | NanoBRET Fold Response ([3]; OPRK1, tracer 0.1μM) | NanoBRET Fold Response ([3]; OPRK1, tracer 1μM) | NanoBRET Fold Response ([4]; BDKRB2, tracer 0.1μM) | NanoBRET Fold Response ([4]; BDKRB2, tracer 1μM) | NanoBRET Fold Response ([5]; VIPR1, tracer 0.1μM) | NanoBRET Fold Response ([5]; VIPR1, tracer 1μM) | further results
1 | O=C(CCOCCOCCOCCOCCNC(=O)CCc1ccc2n1[B-](F)(F)[N+]1=C(c3ccc[nH]3)C=CC1=C2)NCCCN1CCN(C2=Nc3ccccc3Oc3ccc(Cl)cc32)CC1 [Loxapine-a-2-NB590] | 1.04 | 1.26 | 1.35 | 1.74 | 1.03 | 0.95 | 1.08 | 1.16 | 0.94 | 1.05 | 
2 | CCCn1c(=O)c2[nH]c(-c3ccc(OCC(=O)NCCNC(=O)CCOCCNC(=O)c4ccc(CNC(=O)CCc5ccc6n5[B-](F)(F)[N+]5=C(c7ccc[nH]7)C=CC5=C6)cc4)cc3)nc2n(CCC)c1=O [XAC-3-NB590] | 0.93 | 1.60 | 0.47 | 0.65 | 0.97 | 1.34 | 1.00 | 1.14 | 1.03 | 0.99 | 
3 | CN(C)CCC=C1c2ccccc2CCc2ccc(C(=O)NCCNC(=O)CCOCCOCCOCCOCCNC(=O)CCc3ccc4n3[B-](F)(F)[N+]3=C(c5ccc[nH]5)C=CC3=C4)cc21 [Amitriptyline-a-2-NB590] |  |  |  |  |  |  |  |  |  |  | NanoBRET Fold Response ([1]; tracer at 0.1μM): 1.00; NanoBRET Fold Response ([1]; tracer at 1μM): 0.97; NanoBRET Fold Response ([2]; tracer at 0.1μM): 1.09; NanoBRET Fold Response ([2]; tracer at 1μM): 1.09; NanoBRET Fold Response ([3]; tracer at 0.1μM): 1.04; NanoBRET Fold Response ([3]; tracer at 1μM): 1.02; NanoBRET Fold Response ([4]; tracer at 0.1μM): 1.01; NanoBRET Fold Response ([4]; tracer at 1μM): 1.04; NanoBRET Fold Response ([5]; tracer at 0.1μM): 0.95; NanoBRET Fold Response ([5]; tracer at 1μM): 1.07
4 | COc1ccccc1N1CCN(CCCCN2C(=O)c3ccc(CNC(=O)CCOCCOCCOCCOCCNC(=O)CCc4ccc5n4[B-](F)(F)[N+]4=C(c6ccc[nH]6)C=CC4=C5)cc3C2=O)CC1 [NAN-190-2-NB590] | 0.94 |  | 1.35 | 1.41 | 1.02 |  | 1.08 | 0.98 | 1.00 | 1.02 | 
5 | O=C(CCc1ccc2n1[B-](F)(F)[N+]1=C(c3ccc[nH]3)C=CC1=C2)NCc1ccc(C(=O)NCCOCCOCCNCC(O)COc2cccc3ccccc23)cc1 (stereo not drawn) [Propranolol-3-NB590] |  |  |  |  |  |  |  |  |  |  | NanoBRET Fold Response ([1]; CXCR3, 0.1μM): 0.99; NanoBRET Fold Response ([1]; CXCR3, 1μM): 0.90; NanoBRET Fold Response ([2]; HTR1D, 0.1μM): 1.24; NanoBRET Fold Response ([2]; HTR1D, 1μM): 0.96; NanoBRET Fold Response ([3]; OPRK1, 0.1μM): 1.08; NanoBRET Fold Response ([3]; OPRK1, 1μM): 1.02; NanoBRET Fold Response ([4]; BDKRB2, 0.1μM): 1.04; NanoBRET Fold Response ([4]; BDKRB2, 1μM): 1.07; NanoBRET Fold Response ([5]; VIPR1, 0.1μM): 1.03; NanoBRET Fold Response ([5]; VIPR1, 1μM): 1.04
6 | COc1ccccc1N1CCN(CCCCN2C(=O)c3ccc(CNC(=O)CCOCCNC(=O)c4ccc(CNC(=O)CCc5ccc6n5[B-](F)(F)[N+]5=C(c7ccc[nH]7)C=CC5=C6)cc4)cc3C2=O)CC1 [NAN-190-3-NB590] | 0.97 | 1.01 | 1.11 | 1.70 | 0.89 | 1.16 | 0.97 | 0.88 | 0.71 | 1.05 | 
7 | CN(CCC=C1c2ccccc2CCc2ccccc21)C(=O)CCOCCOCCOCCOCCNC(=O)CCc1ccc2n1[B-](F)(F)[N+]1=C(c3ccc[nH]3)C=CC1=C2 [Amitriptyline-e-2-NB590] |  |  |  |  |  |  |  |  |  |  | NanoBRET Fold Response ([1]; tracer at 1μM): 1.22; NanoBRET Fold Response ([2]; tracer at 1μM): 0.96; NanoBRET Fold Response ([3]; tracer at 1μM): 1.05; NanoBRET Fold Response ([5]; tracer at 1μM): 1.06
8 | N#CN/C(=N\CCNC(=O)c1ccc(N)cc1)NCCCOc1cccc(CN2CCCCC2)c1 [Aminopotentidine (unmodified)] |  |  |  |  |  |  |  |  |  |  | NanoBRET Fold Response ([2]; HTR1D, other tracers/Aminopotentidine (unmodified), 0.1μM): 1.06; NanoBRET Fold Response ([2]; HTR1D, other tracers/Aminopotentidine (unmodified), 1μM): 1.50; NanoBRET Fold Response ([3]; OPRK1, other tracers/Aminopotentidine (unmodified), 0.1μM): 1.75; NanoBRET Fold Response ([3]; OPRK1, other tracers/Aminopotentidine (unmodified), 1μM): 1.55
